This is an account of results in patent US20180289840A1, “Method for Evaluating Hematological Toxicity of Drug Under Evaluation, and Model for Evaluating Hematological Toxicity of Drug Under Evaluation” (Central Institute for Experimental Animals, priority 2015, published 2018).

Molecules are shown by their SMILES. Like-named read-outs stand apart in the source and are kept apart here.

Series [1] deals with human CD45+ cells (granulocytes-based progenitor cells). Put plainly: Colony forming test on granulocytes-based myelopoiesis progenitor cells, human CD45+ bone marrow cells of humanized Tg-NOG mouse. The format is cell-based. Particulars: for IC50: concentration at which formation of 50% of granulocyte-derived colonies is inhibited, read-out: IC50 (nM) hCD45+; for IC50 / IC90: cultured 16 days; for IC90: concentration at which formation of 90% of granulocyte-derived colonies is inhibited, read-out: IC90 (nM) hCD45+; for influence on the granulocytes-based progenitor cells in the bone marrow, human vs mouse: colony forming test, comparison hCD45+ vs mCD45+. The source says: (§1) The mouse at week 14 after the transplantation of the hCD34^+ cells derived from the human cord blood was euthanized by removing the blood from the abdominal aorta under anesthesia of isoflurane. Then, the femur was collected. The femur was sterilely washed using the Iscove's Modified Dulbecco's Medium (IMDM, available from Life Technologies) to prepare a suspension of cells. The suspension of cells was passed through a nylon filter (pore size of 35 μm, Cell Strainer, available from BD Biosciences) to obtain a filtrate as a solution of the bone marrow cells. A portion of the solution of the bone marrow cells was subjected to FACS analysis to calculate a ratio between the human-derived leucocytes (hCD45^+) and the mouse-derived leucocytes (mCD45^+).
The human 45^+ cells were suspended in a methyl cellulose medium (MethoCult H4534, available from Stem cell technologies) so as to be 5×10^4 cells/1.1 mL/dish. Then, EHC was added at 0.14 nM, 0.4 nM, 1.2 nM, 3.7 nM, 11 nM, or 33 nM. Meanwhile, PTX was added at 0.12 nM, 0.4 nM, 1.1 nM, 3.3 nM, 10 nM, 30 nM, or 90 nM. The resultant was seeded in a dish and was cultured for 16 days at 37° C. under 5% CO2.
(§2) As the vehicle control, dimethyl sulfoxide (DMSO, final concentration of 0.002 v/v %) was used. For each concentration, two dishes were used.
(§3) After a period of the cultivation was completed, the number of the colonies derived from the granulocytes formed was counted and an average number of the colonies in each concentration was calculated. An average number of the colonies in the vehicle control was considered as 100%. The average number of the colonies in each concentration was considered as a relative value (IC50 and IC90). Here, the IC50 means a concentration at which formation of 50% of the colonies is inhibited and the IC90 means a concentration at which formation of 90% of the colonies is inhibited.
(§4) The collection, preparation, and cultivation of the bone marrow cells and the calculation of the percentage of inhibition of colony formation were performed in the same manner as in Example 3-1.
The human CD45^+ cells were exposed to nogitecan at an exposure concentration of 0.41 nM, 1.2 nM, 3.7 nM, 11.1 nM, 33.3 nM, or 100 nM. Meanwhile, the other human CD45^+ cells were exposed to oxaliplatin at an exposure concentration of 123 nM, 370 nM, 1,111 nM, 3,333 nM, 10,000 nM, or 30,000 nM.
(§5) A physiological saline solution was used for the vehicle control of nogitecan and a distilled water was used for the vehicle control of oxaliplatin.
(§6) An average number of the colonies in the vehicle control was considered as 100%. The average number of the colonies in each concentration was considered as a relative value (IC50 and IC90). Here, the IC50 means a concentration at which formation of 50% of the colonies is inhibited and the IC90 means a concentration at which formation of 90% of the colonies is inhibited.

In series [2] the test system is mouse CD45+ cells (granulocytes-based progenitor cells). Put plainly: Colony forming test on granulocytes-based myelopoiesis progenitor cells, mouse CD45+ bone marrow cells of humanized Tg-NOG mouse. The format is cell-based. Particulars: cultured 8 days; for IC50: concentration at which formation of 50% of granulocyte-derived colonies is inhibited, read-out: IC50 (nM) mCD45+; for IC90: concentration at which formation of 90% of granulocyte-derived colonies is inhibited, read-out: IC90 (nM) mCD45+.
Source text: as §1
The mouse CD45^+ cells were suspended in a methyl cellulose medium (available from MethoCult GF M3534, Stem cell technologies) so as to be 2×10^4 cells/1.1 mL/dish. Then, EHC (1.2 nM, 3.7 nM, 11 nM, 33 nM, 100 nM, or 300 nM) was added. Meanwhile, PTX (0.12 nM, 0.4 nM, 1.1 nM, 3.3 nM, 10 nM, 30 nM, or 90 nM) was added. The resultant was seeded in a dish and was cultured for 8 days at 37° C. under 5% CO2.
as §2, §3, §4
The mouse CD45^+ cells were exposed to nogitecan at an exposure concentration of 3.7 nM, 11.1 nM, 33.3 nM, 100 nM, 300 nM, or 900 nM. Meanwhile, the other mouse CD45^+ cells were exposed to oxaliplatin at an exposure concentration of 13.7 nM, 41.2 nM, 123 nM, 370 nM, or 1,111 nM.
as §5, §6

The next series relates to Tg-NOG mouse. Kind of series: Survival and general condition of humanized Tg-NOG mice after single intravenous administration. The format is in vivo. As to the method: (§7) Six-week-old Tg-NOG mice (24 females) were irradiated with X-rays of 2.5 Gy. After a period of from 3 hours to 4 hours, the CD34^+ cells derived from the human cord blood were transplanted at 40,000 cells/body. At 5 week after the transplantation, the peripheral blood was collected from the orbital sinus under anesthesia of isoflurane. Engraftment thereof in the peripheral blood was confirmed.
(§8) Eleven mice suitable for the evaluation were selected and divided into the control group (5 mice) and the oxaliplatin administration group (6 mice). The mice in the control group received a 5 w/v % glucose solution from the tail vein through single intravenous administration. Meanwhile, two mice of the 6 mice in the oxaliplatin administration group received oxaliplatin at 20 mg/kg (2 mg/mL, 10 mL/kg), another two mice in the oxaliplatin administration group received oxaliplatin at 30 mg/kg (3 mg/mL, 10 mL/kg), and the other two mice in the oxaliplatin administration group received oxaliplatin at 40 mg/kg (4 mg/mL, 10 mL/kg) from the tail vein through single intravenous administration. Regarding assignment of the animals, the animals were grouped so that an average value of the number of the human leucocytes and that of the number of the human granulocytes were almost the same.
(§9) The peripheral blood was collected from the orbital sinus under anesthesia of isoflurane at day 4, day 7, day 14, day 17, day 21, and day 28 after the administration. Then, the number of the leucocytes in the peripheral blood was measured with FACS. The animals administered at 30 mg/kg and the animals administered at 40 mg/kg died by day 7 after the administration.

Series [3] has as its system human-derived leucocytes (hCD45+) and human-derived granulocytes (hCD66b+). The format is in vivo. Particulars: oxaliplatin 20 mg/kg single intravenous. As for the experimental part:
as §7, §8, §9

Series [4] relates to mouse-derived leucocytes (mCD45+) and mouse-derived granulocytes (mGr-1+). The format is in vivo. The following applies: oxaliplatin 20 mg/kg single intravenous. As to the method:
as §7, §8, §9

The mark [5] stands for this setting: Homo sapiens, Bone marrow cell, 384 h.
Setting [6] is: Mus musculus, Bone marrow cell, 192 h.

The term IC50 denotes the concentration that inhibits the measured activity by half. Broadly, the IC90 is the concentration needed for an effect of 90%. As for `CC[C@@]1(O)C(=O)OCc2c1cc1n(c2=O)Cc2cc3c(CN(C)C)c(O)ccc3nc2-1` [Nogitecan, nogitecan], in series [1] (setting [5]), the IC50 is 8.7 nM and the IC90 is 24.3 nM. For the same compound, in series [1], the “influence on the granulocytes-based progenitor cells in the bone marrow, human vs mouse” value (“influence … vs mouse” below) was “higher in the human than in the mouse”. Also, in series [2] (setting [6]), the half-inhibitory concentration (IC50) was 142 nM and the IC90 was found to be 305 nM.

Turning to `O=C1[O][Pt]2([NH][C@@H]3CCCC[C@H]3[NH]2)[O]C1=O` [Oxaliplatin, oxaliplatin], in series [1], the “influence … vs mouse” value is reported as “higher in the mouse than in the human”; the half-maximal inhibitory concentration (IC50) was found to be 2770 nM; the 90% effect concentration (IC90) is 4660 nM. For the same compound, in series [2], the IC50 came out at 434 nM and the IC90 stood at 846 nM. In the series with Tg-NOG mouse (oxaliplatin 20 mg/kg single intravenous, day 17 after the administration), the “general condition of animals” value is listed as “moribund condition”. In the series on Tg-NOG mouse (oxaliplatin 30 mg/kg single intravenous), the “death of animals, day after the administration” value is not above 7 days. Also, the “death of animals, day after the administration” value in the series on Tg-NOG mouse (oxaliplatin 40 mg/kg single intravenous) is not above 7 days. Moreover, in series [3], the “change of human leucocytes in peripheral blood” value is “no considerable reduction” and the “day from which tendency of recovering of human-derived granulocytes was presented” value was not below 7 days. The “change of human-derived granulocytes” value in series [3] (day 4 after the administration) is “slightly decreased”. Further, in series [3] (human vs mouse leucocytes), the “difference between species: influence on the reduction in the leucocytes” value is on record as “more strongly developed in the human than in the mouse”. Also, the “change of mouse-derived leucocytes (mCD45+) and mouse-derived granulocytes (mGr-1+)” value in series [4] is “considerably decreased”.

Take `CC(=O)O[C@H]1C(=O)[C@@]2(C)[C@H]([C@H](OC(=O)c3ccccc3)[C@]3(O)C[C@H](OC(=O)[C@H](O)[C@@H](NC(=O)c4ccccc4)c4ccccc4)C(C)=C1C3(C)C)[C@]1(OC(C)=O)CO[C@@H]1C[C@@H]2O` [PTX, paclitaxel]: in series [1] (setting [5]), the IC50 turned out to be 83.9 nM and the IC90 worked out at 84.5 nM. The “influence … vs mouse” value in series [1] was “almost the same between the human and the mouse”. Besides, in series [2] (setting [6]), the IC50 came out at 71.2 nM and the IC90 is 87.5 nM.

Regarding `CCc1c2c(nc3ccc(O)cc13)-c1cc3c(c(=O)n1C2)COC(=O)[C@]3(O)CC` [EHC, 7-Ethyl-10-hydroxycamptothecin], in series [1], the “influence … vs mouse” value is on record as “higher in the human than in the mouse”; the IC50 was 11.3 nM; the IC90 was found to be 12.9 nM. Also, in series [2], the IC50 amounted to 106 nM and the IC90 came out at 122 nM.
